Results on one molecule are retold here after patent US20060264475A1, “COMPOUNDS, COMPOSITIONS AND METHODS FOR INHIBITING OR TREATING HIV-1” (CYTOKINE PHARMASCIENCES, INC., priority 2004, published 2006).

For assay [1], the target named is T1, association of the viral matrix protein (p 17) with karyopherin α (Human immunodeficiency virus type 1 group M subtype B, UniProt P04591).
T1 construct: The PIC is comprised of a number of viral proteins including MA (p17); endogenous in cells; host or cells: cytoplasmic extracts of human monocyte-derived macrophages infected with HIV-1 (virus-made protein in the PIC)
The experiment in a line: cell free assay of PIC binding to karyopherin α (HIV DNA in the Kα fraction). The following applies: cytoplasmic extracts of HIV-1 infected human monocyte-derived macrophages; FIG. 1. The text has this: The inhibition of a molecular target by ITI-367 is illustrated in FIG. 1. The molecular target for nuclear entry of HIV-1 is the association of the viral matrix protein (p 17) carrying the nuclear localization sequences, with the intracellular protein karyopherin α. To validate the activity of ITI-367, a cell free assay was used whereby human monocyte-derived macrophages collected from fresh blood samples were infected with HIV-1. At the predetermined time cells were lysed and the cytoplasmic extracts collected. The extracts contain HIV-1 pre-integration complexes (PIC) that represent the structure within which the HIV-1 cDNA is imported into the nucleus. The PIC is comprised of a number of viral proteins including MA (p17). […] Therefore, this is a cell free assay. The extent of binding was measured by evaluating the levels of HIV DNA found in the Kα fraction in the presence or absence of test compound.

For a further assay, the system named is ADA strain of HIV-1. The experiment in a line: inhibition of HIV-1 infection in monocyte-derived macrophages. The class given is cell-based. The following applies: 10, 1, 0.1, 0.01 μM; over a two week period; FIG. 2. The procedure: Macrophages were prepared as described above. After a week of culture in M-CSF, cells were washed several times in RPMI and pre-incubated in complete (NHS, pen/strep, L-glutamine) medium with compound ITI-367 in appropriate concentration overnight (10, 1, 0.1, and 0.01 μM). [ITI-367 having been dissolved in DMSO at 10 mM concentration which was used as a stock solution (stored at −70° C.). From the stock solutions a 50 μM solution of compound in RPMI was prepared and stored at 4° C.]. After overnight incubation with compound, cells were infected with 500,000 cpm (RT activity) of the ADA strain of HIV-1 in 500 μl of RPMI with or without the compound. Two hours after infection, cells were washed with RPMI and incubated in fresh complete medium with the appropriate concentration of compound. Every 3-4 days, half of the medium was collected and used to quantify the level of virus production. Cultures were supplemented with additional medium. Infected macrophages were maintained for 2-3 weeks.

Assay [2] deals with HIV-1 CCR5 clinical isolate. Put plainly: inhibition of HIV-1 infection of T lymphocytes (tonsil cells), p24 ELISA. Format: cell-based. The procedure:
T lymphocytes were isolated from tonsil tissue 24 hours post-surgical removal and then frozen. Aliquots of all were thawed on day of testing. There was no exogenous stimulation of the tonsil cells. The virus was a CCR5 clinical isolate at an approximate MOI of 1:40,000. Cells were incubated in the presence of ITI-367 for 19 hours prior to a 2.5 hour infection, at which time the virus inoculum was removed followed by two complete media exchanges. Cell culture media was Iscove's Media with 2 mM L-Glutamine, 100 U/ml Penicillin, 100 ug/ml Streptomycin, and 8% heat-inactivated human serum AB. The drug concentrations used were 20 uM, 10 uM, 1 uM and 0.1 uM, prepared from a 50 mM DMSO stock. A no drug infection control (media only) was also evaluated in parallel. Replicates of four or six cultures were used to assess virus production from ITI-367 treated or control samples, respectively. Virus production was evaluated on days 3, 6, 10, 13, & 17 post-infection, by specific ELISA for HIV-1 core antigen (p24). Also, in FIG. 4, virus production was evaluated as a function of drug concentrations at 0, 0.1, 0.5, 1, 5 and 10 μM.
(In general: ELISA stands for enzyme-linked immunosorbent assay.)

In assay [3] the test system is HIV-1 CCR5 clinical isolate. The experiment in a line: ITI-367 combination assay, HIV-1 infectivity in tonsil cells, p24 ELISA. The class given is cell-based. The following applies: combined with NRTi (AZT, d4T), NNRTi (efavirenz), Pi (saquinavir, nelfinavir), FIG. 5-9. The method, then: The inhibitory potential of ITI-367 was tested using HIV-1 infectivity assays in combination with different FDA-approved drugs. […] Tonsil cells, isolated 24 hours post-surgical removal of tonsil tissue then frozen, were used as the target cells. Aliquots of the cells were thawed on the day of testing. There was no exogenous stimulation of the tonsil cells. The virus was a CCR5 clinical isolate at an approximate MOI of 1:40,000. Cells were incubated in the presence of drug for 17 hours prior to a 3.5 hour infection, at which time the virus inoculum was removed through three complete media exchanges. The cells were in the presence of drug before, during, and after all media removals. […]
Cells were cultured at 37° C. and 5% CO2 Samples (150 μl) were harvested on days 3, 5, 7, and 10 post-infection for HIV-1 p24 content analysis by ELISA. […] Uninfected, untreated cells were counted at each sampling to monitor tonsil cell growth kinetics.

`COc1ccccc1-c1noc(=O)n1-c1cccc(C(F)(F)F)c1` [ITI-367]: in assay [1], the “inhibition of association of PIC (MA p17) with karyopherin α” value is listed as “inhibition”. Moreover, the “inhibition of HIV-1 infection in monocyte-derived macrophages” value in the assay with ADA strain of HIV-1 is “inhibition of HIV-1 infection”. Besides, the “inhibition of HIV-1 infection of T lymphocytes” value in assay [2] (20, 10, 1, 0.1 uM, p24 over a seventeen day period, FIG. 3) is recorded as “inhibition of HIV-1 infection”. Moreover, the “inhibition of replication of HIV-1 in Primary Lymphocytes” value in assay [2] (virus production as a function of drug concentration 0-10 μM, FIG. 4) was “inhibition”. In assay [3], the “combination effect on inhibition of HIV-1 replication” value is on record as “synergistic effect”.
